Changes are numbered by the printed parent chain.
Key:
[1] = target: T1, Lys^65Glu hFFA2 (Homo sapiens, UniProt O15552, K65E); assay: HTRF cAMP inhibition assay, Lys65Glu hFFA2; format: cell-based; settings: compared to wild type hFFA2
T1 construct: NanoLuc Luciferase (N); eYFP; expressed in transfected cells; host or cells: Flp-In T-REx HEK293, doxycycline-induced
T1 sequence (O15552 1-330 K65E): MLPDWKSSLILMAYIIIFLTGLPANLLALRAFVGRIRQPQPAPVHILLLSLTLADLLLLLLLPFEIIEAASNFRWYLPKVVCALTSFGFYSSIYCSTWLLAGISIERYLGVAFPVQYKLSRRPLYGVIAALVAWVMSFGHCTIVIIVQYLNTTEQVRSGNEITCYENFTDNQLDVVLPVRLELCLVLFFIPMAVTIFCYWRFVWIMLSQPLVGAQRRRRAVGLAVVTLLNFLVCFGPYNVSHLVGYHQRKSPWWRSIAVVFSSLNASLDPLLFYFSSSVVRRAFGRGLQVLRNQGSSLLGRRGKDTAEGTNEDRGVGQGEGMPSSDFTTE
Protocol: (§1) All cAMP and inositol monophosphate experiments were performed using Flp-In T-REx HEK293 cells induced to express the receptor of interest. Experiments were carried out using respective homogenous time-resolved FRET-based detection kits (CisBio Bioassays; CisBio, Codolet, France) according to the manufacturer’s protocol. For the cAMP inhibition assay cells were plated at 2000 cells/well in low-volume 384-well plates. The ability of agonists to inhibit 1 μM forskolin-induced cAMP production was assessed following a co-incubation for 30 min with agonist compounds. For the inositol monophosphate accumulation assay cells were plated at 7500 cells/well in low-volume 384-well plates and incubated for 2 h at 37 °C with test compounds. To assess ability of antagonists to inhibit agonist responses, cells were pre-incubated with antagonist compounds for 30 min at 37 °C prior to addition of an EC80 concentration of agonist. Respective reactions were stopped according to the manufacturer’s instructions and the output was measured by with a PHERAstar FS plate reader (BMGLabtech, Aylesbury, UK).

[2] = target: T1, Lys^65Glu hFFA2; assay: bias factor β calculation, Lys65Glu hFFA2 compared to WT; format: cell-based; settings: Pathway 2 TGFα shedding
Protocol: (§2) All data are presented as means ± SEM of at least three independent experiments. Data analysis and curve fitting was carried out using the GraphPad Prism software package version 5.0b (GraphPad, San Diego). […] In case of inhibition experiments with antagonists an equivalent analysis was followed to fit an inverse sigmoidal curve. To perform the statistical analysis of curve parameters, data from multiple experiments were fitted independently and resulting curve fit values were analysed with indicated tests. For radioligand binding data, saturation binding curves were generated by fitting the specific binding, which was obtained by subtracting non-specific from total binding, to a one site specific binding model that allows calculation of Kd values for the radioligand at wild type and mutant receptors. To determine affinity of unlabelled ligands, data obtained in displacement assays were fit to an inverse three parameter sigmoidal curve constrained by radioligand affinity and concentration to allow for Ki calculation. To quantify the signaling bias that mutations of hFFA2 show compared to the wild type receptor, bias factor β was calculated by determining the logarithm of the ratio of relative intrinsic activities for a ligand at two different assays[43].

[3] = target: T2, Lys^65Ala hFFA2 (Homo sapiens, UniProt O15552, K65A); assay: inositol monophosphate accumulation assay, Lys65Ala hFFA2; format: cell-based; set-up: NanoLuc Luciferase (N); eYFP; expressed in transfected cells; host or cells: Flp-In T-REx HEK293, doxycycline-induced
T2 sequence (O15552 1-330 K65A): T1 sequence (O15552 1-330 K65E) with E65A
Protocol: as §1

[4] = target: T2, Lys^65Ala hFFA2; assay: HTRF cAMP inhibition assay, Lys65Ala hFFA2; format: cell-based; set-up: NanoLuc Luciferase (N); eYFP; expressed in transfected cells; host or cells: Flp-In T-REx HEK293, doxycycline-induced; settings: compared to wild type hFFA2
Protocol: as §1

[5] = target: T2, Lys^65Ala hFFA2; assay: bias factor β calculation, Lys65Ala hFFA2 compared to WT; format: cell-based; set-up: NanoLuc Luciferase (N); eYFP; expressed in transfected cells; host or cells: Flp-In T-REx HEK293, doxycycline-induced; settings: Pathway 2 TGFα shedding
Protocol: as §2

[6] = target: T2, Lys^65Ala hFFA2; settings: compared with loss of potency in inositol monophosphate assays
Protocol: Membranes were generated from Flp-In T-REx HEK293 cells treated with 100 ng/mL doxycycline to induce expression of receptor of interest. Cells were washed with ice-cold phosphate-buffered saline, removed from dishes by scraping and centrifuged at 3000 rpm for 5 min at 4 °C. Pellets were resuspended in TE buffer (75 mM Tris-HCl, 5 mM EDTA; pH 7.5) containing a protease inhibitor mixture (Roche Applied Science, West Sussex, UK) and homogenized with a 5 ml hand-held homogenizer. This material was centrifuged at 1500 rpm for 5 min at 4 °C and the supernatant was further centrifuged at 50000 rpm for 30 min at 4 °C. The resulting pellet was resuspended in TE buffer and protein content was assessed using a BCA protein assay kit (Pierce, Fisher Scientific, Loughborough, UK).
Binding was initiated by the addition of membranes (5 µg of protein per tube). […] Radioactivity was quantified by liquid scintillation spectrometry.
All data are presented as means ± SEM of at least three independent experiments. […] To perform the statistical analysis of curve parameters, data from multiple experiments were fitted independently and resulting curve fit values were analysed with indicated tests. […]

[7] = target: T3, Lys^65Arg hFFA2 (Homo sapiens, UniProt O15552, K65R); assay: bias factor β calculation, Lys65Arg hFFA2 compared to WT; format: cell-based; settings: Pathway 2 TGFα shedding
T3 construct: NanoLuc Luciferase (N); eYFP; expressed in transfected cells; host or cells: Flp-In T-REx HEK293, doxycycline-induced
T3 sequence (O15552 1-330 K65R): T1 sequence (O15552 1-330 K65E) with E65R
Protocol: as §2

[8] = target: T4, hFFA2 (Homo sapiens, UniProt O15552); assay: TGFα shedding assay, wild type hFFA2; format: cell-based; set-up: HA-tag (C); expressed in transfected cells; host or cells: HEK293, parental and CRISPR/Cas9 G protein-deleted lines, transient transfection
T4 sequence (O15552 1-330): T1 sequence (O15552 1-330 K65E) with E65K
Protocol: A mixture of 250 ng AP-TGFα, 100 ng receptor of interest and 50 ng Gα protein were transfected using polyethyleneimine into one well of HEK293 cells cultured in a 12-well plate. Transfected cells were detached with PBS containing 0.05% trypsin and 0.52 mM EDTA and harvested by centrifugation at 190 × g for 5 min. The cell pellet was resuspended in PBS, followed by an incubation for 15 min at room temperature. After a second centrifugation at 190 × g for 5 min, pelleted cells were resuspended in 4 ml Hank’s Balanced Salt Solution (HBSS) containing 5 mM HEPES (pH7.4) per well in a 12-well plate. The cell suspensions were plated at 90 μl per well in a 96-well plate and incubated at 37 °C with 5% CO2 for 30 minutes. After the equilibration period 10 μl per well of 10× concentration of compounds were added and incubated for 1 h at 37 °C with 5% CO2. Plates were centrifuged at 190 × g for 2 min and 80 μL of supernatant was transferred into another 96-well plate. Solution containing p-NPP (10 mM p-NPP, 40 mM Tris-HCl (pH 9.5), 40 mM NaCl, 10 mM MgCl2) was added at 80 μl per well into supernatant-only plates as well as cell plates. […] Detailed assay development and analysis has been described previously.

[9] = target: T1, Lys^65Glu hFFA2; assay: inositol monophosphate accumulation assay, Lys65Glu hFFA2; format: cell-based
Protocol: as §1

[10] = system: Lys^65 to either Ala or Glu in hFFA2; assay: degree of bias to favor Gi-mediated signalling, Lys65 to either Ala or Glu in hFFA2; format: cell-based, human; settings: vs TGFα shedding
Protocol: as §2

[11] = system: human neutrophils; settings: cited from earlier work
[12] = target: T4, hFFA2; assay: inositol monophosphate accumulation assay, wild type hFFA2; format: cell-based; set-up: expressed in transfected cells; settings: against an EC80 concentration of compound 1, wild type hFFA2; read-out: pIC50 to inhibit inositol monophosphate response, WT (converted)
Protocol: as §1

[13] = target: T3, Lys^65Arg hFFA2; set-up: method as in PMID 26991104; settings: not compatible with current results; cited from earlier work
[14] = system: bovine FFA2; set-up: method as in Hudson et al., unpublished; settings: bovine FFA2 has Lys at residue 65; ref Hudson et al., unpublished; cited from earlier work
[15] = target: T5, Arg^65Lys mFFA2 (Mus musculus, UniProt Q8VCK6, R65K); assay: inositol monophosphate accumulation assay, Arg65Lys mFFA2; format: cell-based; settings: concentration-dependent
T5 construct: eYFP; expressed in transfected cells
T5 sequence (Q8VCK6 1-330 R65K): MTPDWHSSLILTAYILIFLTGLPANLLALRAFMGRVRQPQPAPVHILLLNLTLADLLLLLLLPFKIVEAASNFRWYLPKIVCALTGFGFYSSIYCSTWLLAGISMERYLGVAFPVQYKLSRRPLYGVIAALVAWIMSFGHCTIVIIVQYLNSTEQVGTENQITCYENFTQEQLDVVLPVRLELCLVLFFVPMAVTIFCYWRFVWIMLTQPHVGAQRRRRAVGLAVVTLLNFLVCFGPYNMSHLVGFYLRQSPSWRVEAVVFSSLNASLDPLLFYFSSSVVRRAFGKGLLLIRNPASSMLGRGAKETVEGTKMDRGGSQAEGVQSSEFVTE
Protocol: as §1

[16] = target: T6, mFFA2 (Mus musculus, UniProt Q8VCK6); assay: inositol monophosphate accumulation assay, mFFA2; format: cell-based; settings: EC80 concentration of C3, wild type mFFA2
T6 construct: eYFP; expressed in transfected cells; host or cells: Flp-In T-REx HEK293, doxycycline-induced
T6 sequence (Q8VCK6 1-330): T5 sequence (Q8VCK6 1-330 R65K) with K65R
Protocol: as §1

[17] = target: T3, Lys^65Arg hFFA2; assay: inositol monophosphate accumulation assay, Lys65Arg hFFA2; format: cell-based
Protocol: as §1

CCC(=O)O [Compound C3, propionate]
maximal effect in cAMP inhibition at Lys65Glu hFFA2 [1]: greater than at wild type hFFA2
β factor (compared to WT) K65E ([2]; Pathway 1 GTPγS): 1.62
β factor (compared to WT) K65E ([2]; Pathway 1 cAMP): 2.10
loss of agonist potency at Lys65Ala hFFA2 vs wild type, inositol monophosphate accumulation ([3]; Ala substitution): greater than 30 fold
maximal effect in cAMP inhibition at Lys65Ala hFFA2 [4]: greater than at wild type hFFA2
β factor (compared to WT) K65A ([5]; Pathway 1 GTPγS): 1.78
β factor (compared to WT) K65A ([5]; Pathway 1 cAMP): 2.00
ability to compete for binding with [3H]GLPG0974 at Lys65Ala hFFA2 [6]: much less affected
β factor (compared to WT) K65R ([7]; Pathway 1 GTPγS): −0.10
β factor (compared to WT) K65R ([7]; Pathway 1 cAMP): −0.30
potency in TGFα shedding assay (parental HEK293) higher than in inositol monophosphate accumulation assay ([8]; wild type hFFA2): ~10 fold
TGFα shedding response in HEK293 cells lacking Gαq, Gα11, Gα12, Gα13 ([8]; wild type hFFA2, all four G protein α subunits eliminated): no TGFα shedding response
loss of agonist potency at Lys65Glu hFFA2 vs wild type, inositol monophosphate accumulation ([9]; Glu substitution): greater than 30 fold
bias to favor Gi-mediated signalling compared to wild type hFFA2, based on [35S]GTPγS binding studies [10]: 41–60 fold
bias to favor Gi-mediated signalling compared to wild type hFFA2, based on cAMP inhibition studies [10]: 100–125 fold

CC1(C(=O)N(CCCC(=O)O)Cc2cccc(Cl)c2)CCN1C(=O)c1csc2ccccc12 (stereo not shown) [GLPG0974, 4-[[1-(benzo[b]thiophene-3-carbonyl)-2-methylazetidine-2-carbonyl]-(3-chlorobenzyl)amino]butyric acid]
block of chemotaxis of human neutrophils [11]: effectively blocked chemotaxis of human neutrophils

O=C(O)C[C@H](Cc1ccc(C(F)(F)F)cc1)NC(=O)Cc1cccc(Cl)c1 [CATPB, (S)-3-(2-(3-chlorophenyl)acetamido)-4-(4-(trifluoromethyl)phenyl)butanoic acid]
IC50 [12]: 19.1 nM
antagonism of C3 at Lys65Arg hFFA2 [13]: effective and competitive antagonist
IC50 ([3]; against an EC80 concentration of compound 1, K65A hFFA2, read-out: pIC50 to inhibit inositol monophosphate response, K65A (converted)): 437 nM
binding to bovine FFA2 [14]: does not bind CAPTB with high affinity
antagonism of C3-mediated inositol monophosphate accumulation at Arg65Lys mFFA2 [15]: fully antagonize
effect on C3-stimulated inositol monophosphate production at mFFA2 [16]: unaffected
IC50 ([9]; against an EC80 concentration of compound 1, K65E hFFA2, read-out: pIC50 to inhibit inositol monophosphate response, K65E (converted)): > 31600 nM
ability to block compound 1-mediated elevation of inositol monophosphate accumulation at Lys65Arg hFFA2 ([17]; EC80 concentration of compound 1): all but abolished
IC50 ([17]; against an EC80 concentration of compound 1, K65R hFFA2, read-out: pIC50 to inhibit inositol monophosphate response, K65R (converted)): > 31600 nM
